Counter-ions that a name gives are not always drawn. Like-named read-outs stand apart in the source and are kept apart here.
Columns and labels:
[1] = tested on: Prostate cancer PC3 and LNCaP, T-cell leukemia Jurkat, and breast cancer MCF-7; assay: Cellular activity in the relevant cancer cell lines; type: cell-based, human
From the text: (§1) Several cancer cell lines were used to determine the activity of PKB inhibitor compounds in intact cells. The human prostate carcinoma cell lines, PC-3 and LNCaP. The human acute T cells leukemia cell line, Jurkat. Human breast carcinoma cell lines: MCF-7 and MDA468 and renal adenocarcinoma cell 786-O. LNCaP,MDA468, 786-O and Jurkat cell lines express high basal level of activated PKB. PC-3 expresses moderate level of activated PKB. MCF-7 expresses low but inducible level of activated PKB. Control cells are PBLs, normal peripheral blood lymphocytes which obtained from normal donors (blood bank) and MCF10F which is a non tumorogenic breast cell line. The control cells are used to compare the effect of the protein kinase inhibitors on the tested cancer cells and the normal cells.
Selected peptide conjugates, which were found active in the enzyme-inhibition assays were screened for their ability to inhibit growth of tumor cell lines. Screening for inhibitory compounds was done, initially, at concentration of 50 μM. Active compounds from the first screening were further tested at different concentrations (50, 25, 12.5, 6.25, 3.125 and 1.56 μM) in order to determine their IC50. Growth inhibition was tested using two methods: A. staining of viable cells with methylene blue, B. incorporation of ^3H-thymidine. For both methods cells were grown in 96-well plates: LNCaP, 5000 cell per well for 72 hours, PC3, 5000 cells per well for 48 hours Jurkat, MDA468, and 786-O, 2500, 5000 and 1000 cells per well respectively for 24 hours, before tested compounds were added. The assays were done in triplicates for one to six days.
In addition, some of the new conjugates were also 10-20 times selective for PKB over PKA in contrast to previously described chimeric compounds. • 1. […] From the peptide transporter conjugates, 96 compounds were tested all were very active in the in-vitro kinase assay and very selective 10-50 fold, however only few were active in cells. The selected 6 active conjugates show 8-20 μM activity in cells.

[2] = tested on: prostate cancer cell lines; assay: Growth inhibition assay, combination with chemotherapeutic agents
Method: The chemotherapeutic agents used are: Mitoxantrone hydrochloride (Novantrone, Wyeth Lederle S.p.A. Catania, Italy) supplied as a sterile aqueous solution of 3.8 mM. Doxorubicin, Etoposide and Vinblastine sulfate salt (Sigma) were dissolved in 100% DMSO to prepare stock solutions at concentration of 10 mM. Docetaxel (Taxpter, Aventis) stock solution of 11.6 mM in polysorbate 80. These agents were diluted in medium just before use for in vitro studies.
Cells were incubated for five days in the present of the drugs followed by fixation and staining of cells with methylene blue.

[3] = tested on: PC3 cells; assay: Growth inhibition assay in PC3 cells; type: cell-based, human; settings: 50 μM
From the text: as §1, with “The control cells are used to compare the effect of the protein kinase inhibitors on the tested cancer cells and the normal cells.” left out
(§2) Cells were fixed by 0.5% glutardialdehyde followed by staining with 1% methylene blue in borate buffer (Sigma) for one hour. […] Quantitation of color intensity was performed by measurement of the optical density at 600 nm by ELISA reader. […]
(§3) At the appropriate time in culture 1uci of 3H-thymidine (stock of 5 Ci/mmole, Amersham) was added to each well containing 100 μl of medium for 5 hours. […] The radioactivity was counted using microplate counter, Packard TopCount.
(§4) Fifty percent inhibitory concentration (IC50) values were calculated using nonlinear regression in one site competition model with GraphPad Prism version 3.03 Windows (GraphPad Software, San Diego, USA)

[4] = tested on: LNCaP cells; assay: Growth inhibition assay in LNCaP cells; type: cell-based, human; settings: Table 3, assay B2
From the text: as §1, with “The control cells are used to compare the effect of the protein kinase inhibitors on the tested cancer cells and the normal cells.” left out
as §2, §3, §4

[5] = target: T1, PKB (Homo sapiens, UniProt P31749); assay: PKB in vitro kinase activity assay; type: biochemical
T1 construct: His; HA; made in house
T1 sequence (P31749 whole entry, species assumed): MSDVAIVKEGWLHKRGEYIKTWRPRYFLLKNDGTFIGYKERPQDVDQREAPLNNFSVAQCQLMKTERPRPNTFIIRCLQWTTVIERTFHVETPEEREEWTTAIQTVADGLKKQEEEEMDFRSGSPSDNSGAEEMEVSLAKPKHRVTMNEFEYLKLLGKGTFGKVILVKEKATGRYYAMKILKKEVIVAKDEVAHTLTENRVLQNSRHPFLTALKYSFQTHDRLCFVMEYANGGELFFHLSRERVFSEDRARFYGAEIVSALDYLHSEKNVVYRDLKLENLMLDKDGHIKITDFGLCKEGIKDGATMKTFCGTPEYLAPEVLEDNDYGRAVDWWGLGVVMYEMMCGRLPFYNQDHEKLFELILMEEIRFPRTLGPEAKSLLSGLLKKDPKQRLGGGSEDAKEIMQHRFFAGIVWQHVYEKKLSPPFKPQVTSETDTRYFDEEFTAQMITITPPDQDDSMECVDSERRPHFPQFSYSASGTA

[6] = tested on: PKB downstream substrates GSK3 and FKHR; assay: Inhibition of phosphorylation of PKB downstream substrates (Western blot); type: cell-based, human; settings: cancer cells
Method: B3. Inhibition of Phosphorylation of PKB and Downstream Substrates:
Peptide conjugates identified as inhibitors of PKB were further tested in cells for their ability to inhibit the phosphorylation of several PBK downstream substrates. The substrate GSK3 is associated with cell metabolism and cell cycle. Forkhead (FKHR) is directly associated with apoptosis. Inhibitory activity in these assays indicates also that the positive compounds penetrate into the cells.
Cells (2×10^6) were seeded in 25 cm^2 flasks grown for 2 days at normal medium conditions. Inhibitory compounds were added for 24 hrs and analyzed for their effect on PKB phosphorylation at Ser473 residue and on the phosphorylation of specific substrates of PKB, GSK3 and FKHR. At the end of the treatment cells were lysed using lysis buffer (20 mM Tris-HCl pH 7.4, 150 mM NaCl, 0.5% Triton-x100, 25 mM NaF, 2 mM AEBSF, 1 mM sodium orthovanadate, 10 mM β-glycerophosphate, 1 μg/ml aprotonin and 5 μg/ml leupeptin). Equal amounts of cell protein were resolved by 10% SDS-PAGE and electroblotted to PVDF membranes. Western blot analysis was performed using antibodies against phospho-Akt1 (Ser473), phospho-GSK3α (Ser21) and phosphor-FKHR (Thr24), which were obtained from Cell Signaling Technology and against Akt1 (Upstate), GSK3α (Transduction Laboratories), and FKHR (Cell Signaling Technology).

[7] = tested on: PC3 tumor xenograft; assay: Efficacy study in mice bearing PC3 tumor, systemic administration; type: in vivo
Method: b. Human prostatic PC-3 cancer cells are grafted subcutaneously in 5 weeks old male nude Balb/c mice of approximately 20 g. Each mouse will receive 2.5×10^6cells at Day 0. Intraperitoneal (i.p.) treatment is initiated when tumour volume reaches approximately 50 mm^3. I.p. administration is highly acceptable in preliminary experiments, and exemplifies the stability in the blood and liver, and the distribution through the blood into the tumor. The control groups is treated with the vehicle 10% DMSO -90% 2-hydroxypropyl-beta-cyclodextrin at 1×10^−2M in sterile saline. Tumour volume measurements with callipers (equation=length×width^2×0.4) and body weights are recorded 3 times weekly on Mondays, Wednesdays and Fridays. Mice are monitored twice daily for general health status. Mice are sacrificed when the tumour mass in the respective vehicle treated groups reaches approximately 20% of the body weight or if this should not be obtained, 3 weeks after the end of the treatment. At the end of the experiment, the tumours of the 3 first sacrificed mice in each group are collected and embedded in paraffin blocks for further histological examination. The remaining tumours are collected and frozen in liquid nitrogen for western blot analysis.
Although the peptide dose was 3.3 mg/kg the MTD for this compound is 40 times higher, indicating a high therapeutic index. • b. Two concentrations were tested, 66 mg/kg and 33 mg/kg, which are 0.5 and 0.25 of the MTD. The relatively high doses were selected because we had no previous knowledge on the pharmacokinetics of the compound, and we wanted to obtain maximum effect, although we expected that toxic effects might occur as a result of the high dosing.
The compounds were dissolved in a solution of 10% DMSO/90% cyclodextrin in physiological saline. Six groups of 9 mice in each were tested. Two groups received the compound i.v, every 48 hours, and two groups received it daily, by i.p. injection. Treatment started at 7 days post graft, lasted for 21 days, followed by a 14-day observation period. The experiment consisted four experimental groups as in table 7:
It is clear that the effect of the inhibitors was very significant, despite the aggressiveness of the tumors.
Three tumors from each group were studies and a clear trend of increased apoptosis is observed in the treated tumors, implying induction of apoptosis through inhibition of PKB. Tumors were collected after the 14 days observation period in which no treatment was given, indicating long-term effect. The ratio between apoptosis to mitoses in tumor sections express the viability of the tumor. In a viable tissue mitotic process are dominant and apoptosis is minor while in dying tissue this ratio is reversed. […]

[8] = tested on: PC3 tumor xenograft; assay: Efficacy study in mice bearing PC3 tumor, IT injection; type: in vivo; settings: high dose (3.3 mg/kg), every other day, second week, FIG. 8
Method: C2. Efficacy Study in Mice Bearing PC3 Tumor
a. PC3 cells ([…]) were injected subcutaneously in matrigel, into hip area of Nude male mice (Harlan Co., Israel). Tumor size was determined by caliper using the formula: Length ×(width^2)×0.4. The tumors were allowed to grow to volume of about 50 mm 3 before the treatment was started. The appropriate doses of compounds were injected subcutaneously into the region surrounding the tumors (IT injection). The treatment was given 3 times a week; every other day for two weeks, and the tumor size was measured once every two days.
The high safety of PTR 6164 allows a very large therapeutic window. The conjugates were further tested in vivo in efficacy studies as described in C2 above: • a. The peptides were injected every other day, at the tumor area. After 3 injections, an indicative tendency of reduction in tumor size was observed.

[9] = tested on: prostate cancer cell lines; assay: Cell death and apoptosis in prostate cancer cell lines; type: cell-based, human
From the text: as §1
Peptide conjugates, which are active in enzyme inhibition assays were tested in cells for induction of apoptosis of cancer cell lines. Apoptosis was assayed at least by two methods in each cell line. Cells were seeded at the appropriate plates for each method, treated with or without the inhibitory compounds for different time points and analyzed by one of the below methods.
Table 9 represents the cell death induced by the protein kinase inhibitors in prostate cancer cell lines vs. normal cells. […]

[10] = 120 h, read-out: IC50 of chemotherapeutic agent alone
[11] = read-out: IC50 of chemotherapeutic agent +PTR 6320, combined with 1.5 μM of PTR 6320, five days, methylene blue
[12] = i.p. 33 mg/kg, tumors collected after the 14 days observation period

Vitamin E succinate-Arg-Pro-Arg-Nva-Tyr-Dap-Hol-NH2 [PTR 6244]
cellular activity [1]: 15 to 20 µM

Myristyl-Gly-Arg-Pro-Arg-Nva-Tyr-Dap-Hol-NH2 [PTR 6180]
cellular activity [1]: 25 to 50 µM

CC[C@]1(O)C[C@@H]2CN(CCc3c([nH]c4ccccc34)[C@@](C(=O)OC)(c3cc4c(cc3OC)N(C)[C@H]3[C@@](O)(C(=O)OC)[C@H](OC(C)=O)[C@]5(CC)C=CCN6CC[C@]43[C@@H]65)C2)C1 [Vinblastine]
IC50 [2, 10]: 2.2 nM | IC50 [2, 11]: 0.1 nM

Arg-Gln-Ile-Lys-Ile-Trp-Phe-Gln-Asn-Arg-Arg-Met-Lys-Trp-Lys-Lys-6154 [Peptide AB60025-2]
% Inhibition PC3 growth [3]: 60% | IC50 [4]: < 12500 nM | % Inhibition PKB activity ([5]; 1 μM): 60% | % Inhibition PKB activity ([5]; 10 μM): 92%

Cholesteryl-O—CO-Arg-Pro-Arg-Nva-Tyr-Dap-Hol-NH2 [PTR 6164]
phosphorylation of GSK3 and FKHR [6]: decreases the phosphorylation of GSK3 and FKHR | effect on tumor growth ([7]; daily i.p. injections, 66 mg/kg and 33 mg/kg, 21 days): significant inhibition of tumor growth | Apoptosis in tumor sections [7, 12]: 5.6 | Mitoses in tumor sections [7, 12]: 3.4 | effect on tumor size ([7]; injections every 48 hours (i.v.), 66 mg/kg and 33 mg/kg): no effect on the tumor size | tumor regression after injection at the tumor area [8]: four out of five animals showed complete regression of the tumor | cellular activity [1]: 12 µM

COc1cc([C@@H]2c3cc4c(cc3[C@@H](O[C@@H]3O[C@@H]5CO[C@@H](C)O[C@H]5[C@H](O)[C@H]3O)[C@H]3COC(=O)[C@H]23)OCO4)cc(OC)c1O [Etoposide]
IC50 [2, 10]: 300 nM | IC50 [2, 11]: 17 nM

COc1cccc2c1C(=O)c1c(O)c3c(c(O)c1C2=O)C[C@@](O)(C(=O)CO)C[C@@H]3O[C@H]1C[C@H](N)[C@H](O)[C@H](C)O1 [Doxorubicine, Doxorubicin]
IC50 [2, 10]: 13 nM | IC50 [2, 11]: 1.1 nM

CC(=O)O[C@@]12CO[C@@H]1C[C@H](O)[C@@]1(C)C(=O)[C@H](O)C3=C(C)[C@@H](OC(=O)[C@H](O)[C@@H](NC(=O)OC(C)(C)C)c4ccccc4)C[C@@](O)([C@@H](OC(=O)c4ccccc4)[C@H]21)C3(C)C [Docetaxel]
IC50 [2, 10]: 0.6 nM | IC50 [2, 11]: 0.03 nM

O=C1c2c(O)ccc(O)c2C(=O)c2c(NCCNCCO)ccc(NCCNCCO)c21 [Mitoxantrone, Mitoxantrone hydrochloride]
IC50 [2, 10]: 3.4 nM | IC50 [2, 11]: ~0.36 nM

Arg-Gln-Ile-Lys-Ile-Trp-Phe-Gln-Asn-Arg-Arg-Met-Lys-Trp-Lys-Lys-6184 [Peptide AB60025-4]
% Inhibition PC3 growth [3]: 52% | IC50 [4]: 10000 nM | % Inhibition PKB activity ([5]; 1 μM): 80% | % Inhibition PKB activity ([5]; 10 μM): 96%

Cholesteryl-O—CO-(DLys)3-Arg-Pro-Arg-Nva-Tyr-Dap-Hol-NH2 [PTR 6320]
concentration inducing apoptosis in cancer cells ([9]; cancer cells): 3 µM | efficacy / potency in cellular assays relative to PTR 6164 ([9]; compared with prototype PTR 6164): five times better efficacy | improved in vitro selectivity in comparison to PTR 6164 ([5]; protein kinase B vs. protein kinase A, FIG. 11): about 20 times

Ahx6-DArg-DArg-DArg-DArg-DGln-DArg-DArg-DLys-DLys-DArg-6154 [Peptide AB60025-54]
% Inhibition PKB activity ([5]; 1 μM): 95% | % Inhibition PKB activity ([5]; 10 μM): 97%

From patent US20070078092A1, “Cell permeable conjugates of peptides for inhibition of protein kinases” (priority 2003, published 2007)
